Results reported in publication PMC6539903 (Molecules, 2019).

What was measured:
[1] = target: T1, COX-2 (Homo sapiens, UniProt P35354); assay: COX-2 inhibition assay (COX-2 ELISA kit); format: biochemical; details: for Selectivity Index (SI) (COX-1 IC50/COX-2 IC50): in vitro COX-2 selectivity index; for IC50: mean of four determinations, read-out: IC50 ± SD COX-2
T1 construct: purchased Cayman Chemical 701180
T1 sequence (P35354 18-604): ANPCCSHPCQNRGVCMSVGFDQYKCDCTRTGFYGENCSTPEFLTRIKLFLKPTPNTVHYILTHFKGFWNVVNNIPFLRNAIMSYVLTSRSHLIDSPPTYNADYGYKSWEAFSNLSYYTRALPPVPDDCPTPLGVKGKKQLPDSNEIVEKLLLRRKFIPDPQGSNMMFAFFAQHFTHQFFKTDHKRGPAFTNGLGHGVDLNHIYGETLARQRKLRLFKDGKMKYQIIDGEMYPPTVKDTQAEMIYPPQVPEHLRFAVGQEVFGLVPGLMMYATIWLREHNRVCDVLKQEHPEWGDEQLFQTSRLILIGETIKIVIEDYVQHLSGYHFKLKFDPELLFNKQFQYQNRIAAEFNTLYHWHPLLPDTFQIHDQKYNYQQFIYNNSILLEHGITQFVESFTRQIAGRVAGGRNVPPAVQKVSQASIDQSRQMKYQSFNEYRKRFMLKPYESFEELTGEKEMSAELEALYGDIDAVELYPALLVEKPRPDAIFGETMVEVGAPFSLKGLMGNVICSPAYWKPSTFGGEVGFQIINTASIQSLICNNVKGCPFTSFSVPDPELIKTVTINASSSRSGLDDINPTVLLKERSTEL
Method: (§1) 3-(4,5-Dimethylthiazol-2-yl)-2,5-diphenyltetrazolium (MTT) were purchased from Beyotime Institute of Biotechnology (Haimen, China). Annexcin V-FITC cell apoptosis assay kit (catalog No.BA11100) was purchased from BIO-BOX (Nanjing, China). Fibronectin (#F1056) and laminin (#L2020) were purchased from Sigma-Aldrich (St. Louis, MO, USA).
(§2) Then 1 M HCl was added to the reaction mixture to stop the reaction, and one-tenth of the volume of saturated stannous chloride (50 mg/mL) was added. The reaction mixture was incubated at room temperature for 5 min, and PGF2 and PGH2 were produced.

[2] = test system: HeLa; assay: MTT antiproliferation assay, HeLa; format: cell-based; details: Homo sapiens, 48 h, n = 3, read-out: IC50 ± SD HeLa
Method: (§3) MCF-7 (human breast cell line), HeLa (human cervical cell line), A549 (human lung cell line), HepG2 (human liver cell line), SW620 (human colorectal cell line) and a non-cancer cell line, NCM460 (Human colonic epithelial cells) were preserved at the State Key Laboratory of Pharmaceutical Biotechnology, Nanjing University (Nanjing, China).
(§4) The antiproliferative activity of the synthetic compounds against the SW620, MCF-7, HeLa, A549, HepG2, and NUM460 cell lines was evaluated by a colorimetric assay based on a modified standard (MTT). […] Thereafter, MTT (5 mg/mL in PBS) was added to each well and incubated for 4 h. 150 μL of DMSO was added to each well and shaken with a shaker. The absorbance (OD 570 nm) was read at 630 nm on an ELISA reader (ELx800, BioTek, montpelier, VT, USA). IC50 values for the compounds were calculated by comparison to DMSO treated control wells. Three replicate wells were used for each drug concentration. Each assay was performed three times.

[3] = test system: SW620 cells; assay: MTT antiproliferation assay, SW620; format: cell-based; details: Homo sapiens, SW-620, 48 h, n = 3, read-out: IC50 ± SD SW620
Method: as §3, §4

[4] = test system: A549; assay: MTT antiproliferation assay, A549; format: cell-based; details: Homo sapiens, 48 h, n = 3, read-out: IC50 ± SD A549
Method: as §3, §4

[5] = test system: HepG2; assay: MTT antiproliferation assay, HepG2; format: cell-based; details: Homo sapiens, 48 h, n = 3, read-out: IC50 ± SD HepG2
Method: as §3, §4

[6] = test system: MCF-7; assay: MTT antiproliferation assay, MCF-7; format: cell-based; details: Homo sapiens, MCF7, 48 h, n = 3, read-out: IC50 ± SD MCF-7
Method: as §3, §4

[7] = MTT cytotoxicity assay, non-cancer colon cells; format: cell-based; details: human, NCM460 colonic epithelial cells (non-cancer cell line), n = 3, non-cancer cell line, read-out: CC50 ± SD NUM460
Method: Besides, the MTT assay was performed on a non-cancer line NCM460 to assess the cytotoxicity of the test compound to normal colon cells.
as §3, §4

[8] = target: T2, COX-1 (Homo sapiens, UniProt P23219); assay: COX-1 inhibition assay (COX-1 ELISA kit); format: biochemical; details: mean of four determinations; read-out: IC50 ± SD COX-1
T2 construct: purchased Cayman Chemical 701170
Method: as §1, §2

T2 sequence (P23219 24-599): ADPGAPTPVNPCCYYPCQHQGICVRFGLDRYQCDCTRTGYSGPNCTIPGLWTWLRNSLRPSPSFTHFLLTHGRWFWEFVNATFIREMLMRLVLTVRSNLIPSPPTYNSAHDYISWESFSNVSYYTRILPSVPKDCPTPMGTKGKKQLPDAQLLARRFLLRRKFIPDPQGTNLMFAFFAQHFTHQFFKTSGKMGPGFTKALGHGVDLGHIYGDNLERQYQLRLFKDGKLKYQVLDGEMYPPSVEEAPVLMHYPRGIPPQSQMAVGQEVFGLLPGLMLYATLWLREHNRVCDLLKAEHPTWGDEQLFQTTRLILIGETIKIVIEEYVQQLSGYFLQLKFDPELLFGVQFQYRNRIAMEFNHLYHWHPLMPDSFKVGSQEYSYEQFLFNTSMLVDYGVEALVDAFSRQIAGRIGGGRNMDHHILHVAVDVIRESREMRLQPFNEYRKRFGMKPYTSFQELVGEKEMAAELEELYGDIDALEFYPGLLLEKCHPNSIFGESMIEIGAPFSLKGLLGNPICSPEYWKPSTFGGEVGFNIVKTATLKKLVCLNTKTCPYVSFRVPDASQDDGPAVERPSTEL

Structure (SMILES)	Selectivity Index (SI) (COX-1 IC50/COX-2 IC50) [1]	IC50 [1]	IC50 [2]	IC50 [3]	IC50 [4]	IC50 [5]	melting point	IC50 [6]	CC50 at 48 h [7]	IC50 [8]
COc1cccc(C2=NN(c3ccc(S(N)(=O)=O)cc3)C(c3ccc4c(c3)OCCO4)C2)c1 (centres unmarked) [Compound 4u, 4-(5-(2,3-Dihydrobenzo[b][1,4]dioxin-6-yl)-3-(3-methoxyphenyl)-4,5-dihydro-1H-pyrazol-1-yl)benzenesulfonamide]	>22.73	2.64 ± 0.17 µM	12.2 ± 0.85 µM	6.63 ± 0.42 µM	7.81 ± 0.37 µM	15.3 ± 1.09 µM	146 to 147 °C	10.6 ± 0.67 µM	178 ± 10.7 µM	> 60 µM
NS(=O)(=O)c1ccc(N2N=C(c3ccc(I)cc3)CC2c2ccc3c(c2)OCCO3)cc1 (centres unmarked) [Compound 4r, 4-(5-(2,3-Dihydrobenzo[b][1,4]dioxin-6-yl)-3-(4-iodophenyl)-4,5-dihydro-1H-pyrazol-1-yl)benzenesulfonamide]	47.33		4.14 ± 0.21 µM	2.17 ± 0.05 µM	3.12 ± 0.08 µM	3.28 ± 0.17 µM	187 to 189 °C	3.95 ± 0.18 µM	38 ± 1.19 µM	41.18 ± 0.17 µM
NS(=O)(=O)c1ccc(N2N=C(c3cccc(F)c3)CC2c2ccc3c(c2)OCO3)cc1 (centres unmarked) [Compound 4h, 4-(5-(Benzo[d][1,3]dioxol-5-yl)-3-(3-fluorophenyl)-4,5-dihydro-1H-pyrazol-1-yl)benzenesulfonamide]	41.33	1.28 ± 0.07 µM	6.07 ± 0.41 µM	3.24 ± 0.18 µM	3.26 ± 0.29 µM	7.14 ± 0.66 µM	192 to 193 °C	5.56 ± 0.38 µM	82.8 ± 7.59 µM	52.91 ± 0.39 µM
COc1cccc(C2=NN(c3ccc(S(N)(=O)=O)cc3)C(c3ccc4c(c3)OCO4)C2)c1 (centres unmarked) [Compound 4g, 4-(5-(Benzo[d][1,3]dioxol-5-yl)-3-(3-methoxyphenyl)-4,5-dihydro-1H-pyrazol-1-yl)benzenesulfonamide]	>18.87	3.18 ± 0.26 µM	14.6 ± 0.96 µM	7.99 ± 0.56 µM	9.42 ± 0.74 µM	18.2 ± 1.15 µM	219 to 221 °C	12.7 ± 0.89 µM	211 ± 18.2 µM	> 60 µM
CCOc1ccc(C2=NN(c3ccc(S(N)(=O)=O)cc3)C(c3ccc4c(c3)OCCO4)C2)cc1 (centres unmarked) [Compound 4n, 4-(5-(2,3-Dihydrobenzo[b][1,4]dioxin-6-yl)-3-(4-ethoxyphenyl)-4,5-dihydro-1H-pyrazol-1-yl)benzenesulfonamide]	>24.59	2.44 ± 0.19 µM	11.2 ± 0.86 µM	6.12 ± 0.49 µM	6.81 ± 0.55 µM	13.5 ± 0.59 µM	193 to 194 °C	9.88 ± 0.86 µM	157 ± 9.98 µM	> 60 µM
NS(=O)(=O)c1ccc(N2N=C(c3ccc(Br)cc3)CC2c2ccc3c(c2)OCCO3)cc1 (centres unmarked) [Compound 4q, 4-(3-(4-Bromophenyl)-5-(2,3-dihydrobenzo[b][1,4]dioxin-6-yl)-4,5-dihydro-1H-pyrazol-1-yl)benzenesulfonamide]	20.98	1.27 ± 0.03 µM	5.96 ± 0.39 µM	3.18 ± 0.19 µM	3.14 ± 0.25 µM	6.92 ± 0.28 µM	153 to 154 °C	5.47 ± 0.29 µM	80.3 ± 8.01 µM	26.64 ± 0.26 µM
CCOc1ccc(C2=NN(c3ccc(S(N)(=O)=O)cc3)C(c3ccc4c(c3)OCO4)C2)cc1 (centres unmarked) [Compound 4c, 4-(5-(Benzo[d][1,3]dioxol-5-yl)-3-(4-ethoxyphenyl)-4,5-dihydro-1H-pyrazol-1-yl)benzenesulfonamide]	10.45	2.02 ± 0.13 µM	9.37 ± 0.9 µM	5.07 ± 0.26 µM	6.93 ± 0.17 µM	13.7 ± 0.93 µM	182 to 184 °C	8.31 ± 0.67 µM	159 ± 11.4 µM	21.11 ± 0.19 µM
Cc1ccc(C2=NN(c3ccc(S(N)(=O)=O)cc3)C(c3ccc4c(c3)OCO4)C2)cc1C (centres unmarked) [Compound 4f, 4-(5-(Benzo[d][1,3]dioxol-5-yl)-3-(3,4-dimethylphenyl)-4,5-dihydro-1H-pyrazol-1-yl)benzenesulfonamide]	33.61	1.73 ± 0.11 µM	8.05 ± 0.77 µM	4.34 ± 0.33 µM	5.49 ± 0.44 µM	11.2 ± 1.03 µM	179 to 180 °C	7.21 ± 0.62 µM	129 ± 8.96 µM	58.14 ± 0.47 µM
Cc1ccc(C2=NN(c3ccc(S(N)(=O)=O)cc3)C(c3ccc4c(c3)OCO4)C2)c(C)c1 (centres unmarked) [Compound 4i, 4-(5-(Benzo[d][1,3]dioxol-5-yl)-3-(2,4-dimethylphenyl)-4,5-dihydro-1H-pyrazol-1-yl)benzenesulfonamide]	>30.30	1.98 ± 0.15 µM	9.16 ± 0.37 µM	4.96 ± 0.38 µM	6.71 ± 0.57 µM	13.3 ± 0.89 µM	180 to 182 °C	8.14 ± 0.69 µM	155 ± 12.7 µM	> 60 µM
